Assays:
[1] = molecular target: T1, human recombinant ETB receptor (Homo sapiens, UniProt P24530); assay: Inhibition of [125I]ET-1 binding to membranes from CHO cells carrying human ETB receptors
T1 construct: expressed in transfected cells; host or cells: CHO cells (microsomal membranes)
T1 sequence (P24530 27-442): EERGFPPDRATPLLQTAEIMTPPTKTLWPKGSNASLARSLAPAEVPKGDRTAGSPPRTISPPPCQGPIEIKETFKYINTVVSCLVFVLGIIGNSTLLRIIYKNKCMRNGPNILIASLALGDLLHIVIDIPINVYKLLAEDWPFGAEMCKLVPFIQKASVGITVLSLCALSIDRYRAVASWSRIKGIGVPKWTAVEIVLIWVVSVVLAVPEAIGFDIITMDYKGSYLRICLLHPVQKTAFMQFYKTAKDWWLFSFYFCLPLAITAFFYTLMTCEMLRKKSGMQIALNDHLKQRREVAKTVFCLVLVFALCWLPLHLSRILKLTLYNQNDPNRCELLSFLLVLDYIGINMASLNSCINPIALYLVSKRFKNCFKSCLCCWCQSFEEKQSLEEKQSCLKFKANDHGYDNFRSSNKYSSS

[2] = molecular target: T2, human recombinant ETA receptor (Homo sapiens, UniProt P25101); assay: Inhibition of [125I]ET-1 binding to membranes from CHO cells carrying human ETA receptors
T2 construct: expressed in transfected cells; host or cells: CHO cells (microsomal membranes)
T2 sequence (P25101 21-427): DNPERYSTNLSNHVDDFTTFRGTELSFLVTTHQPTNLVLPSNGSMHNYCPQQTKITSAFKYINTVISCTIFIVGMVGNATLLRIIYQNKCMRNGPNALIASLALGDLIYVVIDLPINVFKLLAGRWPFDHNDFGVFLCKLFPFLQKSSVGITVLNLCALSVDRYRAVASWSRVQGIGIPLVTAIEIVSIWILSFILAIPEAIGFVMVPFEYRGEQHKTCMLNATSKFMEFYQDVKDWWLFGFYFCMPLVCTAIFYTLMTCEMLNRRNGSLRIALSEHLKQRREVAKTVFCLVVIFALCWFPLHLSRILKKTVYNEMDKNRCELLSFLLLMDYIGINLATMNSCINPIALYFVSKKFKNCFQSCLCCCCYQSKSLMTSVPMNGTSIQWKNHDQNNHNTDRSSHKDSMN

| SMILES | IC50 [1] | IC50 [2] |
| --- | --- | --- |
| COc1ccccc1Oc1c(NS(=O)(=O)Nc2ccc(C(C)(C)C)cc2)nc(-c2ccncc2)nc1OCCO [Example 10, 4-t-butyl-phenyl sulfamic acid-[6-(2-hydroxy-ethoxy)-5-(o-methoxy-phenoxy)-2-(4-pyridyl)-4-pyrimidinyl]-amide] | 193 nM | 2870 nM |
| COc1ccccc1Oc1c(NS(=O)(=O)NCc2ccccc2)ncnc1OCCOc1ncc(SC)cn1 [Example 97] | 92 nM | 1.55 nM |
| COc1ccc(Cl)c(Oc2c(NS(=O)(=O)NCc3ccccc3)ncnc2OCCOc2ncc(S(C)(=O)=O)cn2)c1 [Example 214, Benzylsulfamic acid [5-(2-chloro-5-methoxy-phenoxy)-6-[2-(5-methanesulfonyl-pyrimidin-2-yloxy)-ethoxy]-pyrimidin-4-yl]-amide] | 241 nM | 0.76 nM |
| CN(Cc1ccccc1)S(=O)(=O)Nc1ncnc(OCCOc2ncc(Br)cn2)c1-c1ccc(Cl)cc1 [Example 193] | > 1000 nM | 3.6 nM |
| COc1cnc(OCCOc2ncnc(NS(=O)(=O)N(C)Cc3ccccc3)c2-c2ccc(Cl)cc2)nc1 [Example 194] | > 1000 nM | 9.5 nM |
| COc1ccccc1Oc1c(NS(=O)(=O)NCc2ccccc2)nc(-c2ncccn2)nc1OCCOC(=O)Nc1cnccn1 [Example 42] | 146 nM | 3.5 nM |
| CSc1cnc(OCCOc2ncnc(NS(=O)(=O)NC3CC3)c2-c2ccc(Br)cc2)nc1 [Example 197] | 418 nM | 1.16 nM |
| COc1ccccc1Oc1c(NS(=O)(=O)NCc2ccccc2)nc(S(C)(=O)=O)nc1OCCO [Example 204, Benzylsulfamic acid [6-(2-hydroxy-ethoxy)-2-methanesulfonyl-5-(2-methoxy-phenoxy)-pyrimidin-4-yl]-amide] | 1050 nM | 390 nM |
| C#CCOc1nc(-c2ccncc2)nc(NS(=O)(=O)NCc2ccc(OC)cc2)c1Oc1ccccc1OC [Example 160] | 3220 nM | 11 nM |
| COc1cnc(OCCOc2ncnc(NS(=O)(=O)NCc3ccc4c(c3)OCO4)c2Oc2cc(OC)ccc2Cl)nc1 [Example 152] | 79 nM | 1.1 nM |
| COc1ccccc1Oc1c(NS(=O)(=O)NC2CC2)nc(-c2ncccn2)nc1OCCOc1ncc(Br)cn1 [Example 199] | 205 nM | 12 nM |
| COc1ccccc1Oc1c(NS(=O)(=O)NCc2ccccc2)nc(-c2ncccn2)nc1OCCOC(=O)Nc1ccccc1 [Example 43] | 214 nM | 6.8 nM |
| COc1ccccc1Oc1c(NS(=O)(=O)NCC2CCCCC2)nc(-c2ccncc2)nc1OCCOc1ncc(Br)cn1 [Example 130] | 347 nM | 3.7 nM |
| COc1ccccc1Oc1c(NS(=O)(=O)NCc2ccc(F)cc2)nc(-c2ncccn2)nc1OCCOc1ncc(Br)cn1 [Example 142] | 108 nM | 2.6 nM |
| COc1ccccc1Oc1c(NS(=O)(=O)Nc2ccc(C(C)C)cc2)nc(-c2ccncc2)nc1OCCOc1ccc(C(F)(F)F)cn1 [Example 6, 4-i-propyl-phenyl sulfamic acid-[6-[2-(5-trifluoromethyl-pyridin-2-yloxy)-ethoxy]-5-(o-methoxy-phenoxy)-2-(4-pyridyl)-pyrimidin-4-yl]-amide] | 7240 nM | 286 nM |
| COc1ccccc1Oc1c(NS(=O)(=O)NCc2ccccc2)nc(-c2ccncc2)nc1OCCOc1ncc(SC)cn1 [Example 74] | 164 nM | 1.8 nM |
| COc1cnc(OCCOc2ncnc(NS(=O)(=O)NCc3ccccc3)c2-c2ccc(Cl)cc2)nc1 [Example 15] | 2160 nM | 18.5 nM |
| COc1cnc(OCCOc2nc(-c3ncccn3)nc(NS(=O)(=O)N(C)Cc3ccccc3)c2Oc2ccccc2OC)nc1 [Example 188] | 290 nM | 11 nM |
| COc1ccc(Cl)c(Oc2c(NS(=O)(=O)NCc3ccccc3)ncnc2OCCOc2ncc(SC)cn2)c1 [Example 213, Benzylsulfamic acid [6-[2-(5-methylsulfanyl-pyrimidin-2-yloxy)-ethoxy]-5-(2-chloro-5-methoxy-phenoxy)-pyrimidin-4-yl]-amide] | 347 nM | 1.32 nM |
| COc1ccc(Cl)c(Oc2c(NS(=O)(=O)NCc3ccc4c(c3)OCO4)ncnc2OCCOc2ncc(Br)cn2)c1 [Example 151] | 57 nM | 0.77 nM |
| COc1ccccc1Oc1c(NS(=O)(=O)NCc2ccccn2)nc(-c2ncccn2)nc1OCCOc1ncc(Br)cn1 [Example 156] | 409 nM | 18 nM |

| SMILES | IC50 [1] | IC50 [2] |
| --- | --- | --- |
| COc1cnc(OCCOc2ncnc(NS(=O)(=O)NCc3ccc4c(c3)OCO4)c2-c2ccc(C)cc2)nc1 [Example 146] | 514 nM | 5 nM |
| COc1ccccc1Oc1c(NS(=O)(=O)NCc2ccccc2)nc(-c2ccnc(-c3nnn[nH]3)c2)nc1OC [Example 207, benzylsulfamic acid [6-methoxy-5-(2-methoxy-phenoxy)-2-[2-(1H-tetrazol-5-yl)-pyridin-4-yl]-pyrimidin-4-yl]-amide] | > 1000 nM | 17 nM |
| COc1cnc(OCCOc2ncnc(NS(=O)(=O)NCC3CC3)c2-c2ccc(Cl)cc2)nc1 [Example 113] | 581 nM | 4.26 nM |
| COc1cnc(OCCOc2nc(-c3ncccn3)nc(NS(=O)(=O)NC3CC3)c2Oc2ccccc2OC)nc1 [Example 200] | 310 nM | 23 nM |
| Cc1ccc(NS(=O)(=O)Nc2ncnc(OCCOc3ncc(Br)cn3)c2-c2ccc(C)cc2)cc1 [Example 12, 4-methyl-phenyl sulfamic acid-[6-[2-(5-bromo-pyrimidin-2-yloxy)-ethoxy]-5-(p-tolyl)-4-pyrimidinyl]-amide] | > 10000 nM | 59 nM |
| COc1cnc(OCCOc2nc(C3CC3)nc(NS(=O)(=O)NCc3ccccc3)c2Oc2ccccc2OC)nc1 [Example 89] | 621 nM | 19 nM |
| COc1ccccc1Oc1c(NS(=O)(=O)NCc2ccccc2)nc(C2CC2)nc1OCCOC(=O)Nc1ccccn1 [Example 91] | 79 nM | 2.5 nM |
| CSc1cnc(OCCOc2nc(-c3ccncc3)nc(NS(=O)(=O)NCc3ccccc3)c2-c2ccc(Cl)cc2)nc1 [Example 110] | > 1000 nM | 2.3 nM |
| Cc1ccc(-c2c(NS(=O)(=O)NCc3ccc4c(c3)OCO4)ncnc2OCCOc2ncc(Br)cn2)cc1 [Example 145] | > 1000 nM | 1.64 nM |
| CCNS(=O)(=O)Nc1nc(-c2ccncc2)nc(OC)c1Oc1ccccc1OC [Example 7, ethyl sulfamic acid-[6-methoxy-5-(o-methoxy-phenoxy)-2-(4-pyridyl)-pyrimidin-4-yl]-amide] | 9470 nM | 1240 nM |
| CCNS(=O)(=O)Nc1ncnc(OCCOc2ncc(SC)cn2)c1-c1ccc(Br)cc1 [Example 105] | 203 nM | 0.69 nM |
| COc1cnc(OCCOc2nc(-c3ncccn3)nc(NS(=O)(=O)NCc3ccc(Cl)cc3)c2Oc2ccccc2OC)nc1 [Example 55] | 80 nM | 5.2 nM |
| COc1ccccc1Oc1c(NS(=O)(=O)Nc2ccc(C(C)C)cc2)nc(-c2ccncc2)nc1OCCO [Example 3, 4-i-propyl-phenyl sulfamic acid-[6-(2-hydroxy-ethoxy)-5-(o-methoxyphenoxy)-2-(4-pyridyl)-pyrimidin-4-yl]-amide] | 744 nM | 1380 nM |
| COc1cnc(OCCOc2ncnc(NS(=O)(=O)NCc3cccs3)c2-c2ccc(Cl)cc2)nc1 [Example 21] | 1000 nM | 7 nM |
| COc1ccccc1Oc1c(NS(=O)(=O)Nc2ccc(C(C)C)cc2)nc(-c2ccncc2)nc1OC [Example 1, 4-i-propyl-phenyl sulfamic acid-[6-methoxy-5-(o-methoxyphenoxy)-2-(4-pyridyl)-pyrimidin-4-yl]-amide] | 8430 nM | 721 nM |
| C#CCOc1nc(-c2ccnc(-c3nnn[nH]3)c2)nc(NS(=O)(=O)NCc2ccccc2)c1Oc1ccccc1OC [Example 210, Benzylsulfamic acid [5-(2-methoxy-phenoxy)-6-prop-2-ynyloxy-2-[2-(1H-tetrazol-5-yl)-pyridin-4-yl]-pyrimidin-4-yl]-amide] | 936 nM | 23 nM |
| O=S(=O)(NCc1cccs1)Nc1ncnc(OCCOc2ccc(C(F)(F)F)cn2)c1-c1ccc(Cl)cc1 [Example 22] | 434 nM | 12 nM |
| COc1ccccc1Oc1c(NS(=O)(=O)NCc2ccc(Cl)cc2)nc(-c2ncccn2)nc1OCCOC(=O)Nc1ccccn1 [Example 57] | 35.8 nM | 4.9 nM |
| COc1ccccc1Oc1c(NS(=O)(=O)NCc2ccccc2)nc(C2CC2)nc1OCCOc1ncc(SC)cn1 [Example 90] | 433 nM | 7.4 nM |
| COc1ccccc1CNS(=O)(=O)Nc1nc(-c2ncccn2)nc(OCCOc2ncc(Br)cn2)c1Oc1ccccc1OC [Example 174] | 93 nM | 3.7 nM |
| Cc1ccc(-c2c(NS(=O)(=O)NCc3ccccc3)nc(-c3ccncc3)nc2OCCOC(=O)Nc2ccccn2)cc1 [Example 34] | 3270 nM | 23 nM |

— patent publication US7094781B2, “Sulfamides and their use as endothelin receptor antagonists” (Actelion Pharmaceuticals Ltd., priority 2000, dated 2006)
